# Laboratory results taken from EP0908457B1, “3-(1,2-benzisothiazol- and isoxazol-5-Y1)-2,4(1H,3H)-pyrimidinedione or thione and 3-(1,2-benzisothiazol- and isoxazol-5-y1)-4(3H)-pyrimidinone or thione herbicidal agents” (BASF AKTIENGESELLSCHAFT, priority 1997, dated 1999).
# Assays:
# [1] = system: Cyperus serotinus, Rottb.; experiment: Preemergence weed control under flooded paddy conditions, CYPSE (Flatsedge); type: in vivo; settings: preemergence, rated 3-4 weeks after treatment
# [2] = system: Oryza sativa, (L.) Tebonnet; experiment: Rice tolerance to post-transplant applications under flooded paddy conditions (Example 187), ORYSAT (Rice, Tebonnet); settings: rated 3-4 weeks after treatment
# [3] = system: Monochoria vaginalis, Presl.; experiment: Preemergence weed control under flooded paddy conditions, MOOVA (Monochoria); type: in vivo; settings: preemergence, flooded paddy, rated 3-4 weeks after treatment
# Cyperus iria = experiment: Preemergence weed control under flooded paddy conditions, CYPIR (Rice Flatsedge); type: in vivo; settings: preemergence, flooded paddy, rated 3-4 weeks after treatment
# Sagittaria pygmaea, L. = experiment: Preemergence weed control under flooded paddy conditions, SAGPY (Arrowhead (Pygmaea)); type: in vivo; settings: preemergence, flooded paddy, rated 3-4 weeks after treatment
# [4] = system: Echinochloa oryzoides (Ard.) Fritsch.; experiment: Preemergence weed control under flooded paddy conditions, ECHORC (Watergrass (Calif.)); type: in vivo; settings: preemergence, flooded paddy, rated 3-4 weeks after treatment
# Further: meaning of each grade not given here.
Compound,"herbicidal effect rating, CYPSE ([1]; Rate 0.0320 kg/ha)","herbicidal effect rating, CYPSE ([1]; Rate 0.0620 kg/ha)","herbicidal effect rating, CYPSE ([1]; Rate 0.2500 kg/ha)","herbicidal effect rating, CYPSE ([1]; Rate 0.5000 kg/ha)",herbicidal effect rating ORYSAT ([2]; Rate 0.0320 kg/ha),herbicidal effect rating ORYSAT ([2]; Rate 0.0620 kg/ha),herbicidal effect rating ORYSAT ([2]; Rate 0.1250 kg/ha),herbicidal effect rating ORYSAT ([2]; Rate 0.2500 kg/ha),herbicidal effect rating ORYSAT ([2]; Rate 0.5000 kg/ha),"herbicidal effect rating, MOOVA ([3]; Rate 0.0320 kg/ha)","herbicidal effect rating, MOOVA ([3]; Rate 0.0620 kg/ha)","herbicidal effect rating, MOOVA ([3]; Rate 0.1250 kg/ha)","herbicidal effect rating, MOOVA ([3]; Rate 0.2500 kg/ha)","herbicidal effect rating, MOOVA ([3]; Rate 0.5000 kg/ha)","herbicidal effect rating, CYPIR (Cyperus iria; Rate 0.0320 kg/ha)","herbicidal effect rating, CYPIR (Cyperus iria; Rate 0.0620 kg/ha)","herbicidal effect rating, CYPIR (Cyperus iria; Rate 0.1250 kg/ha)","herbicidal effect rating, CYPIR (Cyperus iria; Rate 0.2500 kg/ha)","herbicidal effect rating, CYPIR (Cyperus iria; Rate 0.5000 kg/ha)","herbicidal effect rating, SAGPY (Sagittaria pygmaea, L.; Rate 0.0320 kg/ha)",further results
"C=CS(=O)(=O)NC(=O)COc1ccc(C)cc1-c1nsc2ccc(-n3c(=O)cc(C(F)(F)F)n(C)c3=O)cc12 [Example 553, Acetamide, 2-{{2-{5-[3,6-dihydro-3-methyl-2,6-dioxo-4-(trifluoromethyl)-1(2H)-pyrimidinyl]-1,2-benzisothiazol-3-yl}-p-tolyl}oxy}-N-(vinylsulfonyl)-]",0.0,0.0,2.0,9.0,3.0,4.0,4.0,6.0,4.0,7.0,9.0,9.0,9.0,9.0,2.0,6.0,7.0,9.0,4.0,0.0,"herbicidal effect rating, SAGPY (Sagittaria pygmaea, L.; Rate 0.0620 kg/ha): 0.0; herbicidal effect rating, SAGPY (Sagittaria pygmaea, L.; Rate 0.1250 kg/ha): 0.0; herbicidal effect rating, SAGPY (Sagittaria pygmaea, L.; Rate 0.2500 kg/ha): 0.0; herbicidal effect rating, SAGPY (Sagittaria pygmaea, L.; Rate 0.5000 kg/ha): 0.0; herbicidal effect rating, ECHORC ([4]; Rate 0.0320 kg/ha): 1.3; herbicidal effect rating, ECHORC ([4]; Rate 0.0620 kg/ha): 2.1; herbicidal effect rating, ECHORC ([4]; Rate 0.1250 kg/ha): 6.4; herbicidal effect rating, ECHORC ([4]; Rate 0.2500 kg/ha): 9.0; herbicidal effect rating, ECHORC ([4]; Rate 0.5000 kg/ha): 7.0"
"CCS(=O)(=O)NC(=O)COc1ccc(C)cc1-c1nsc2ccc(-n3c(=O)cc(C(F)(F)F)n(C)c3=O)cc12 [Example 554, Acetamide, 2-{{2-{5-[3,6-dihydro-3-methyl-2,6-dioxo-4-(trifluoromethyl)-1(2H)-pyrimidinyl)-1,2-benzisothiazol-3-yl}-p-tolyl}oxy}-N-(ethylsulfonyl)-]",0.0,0.0,9.0,9.0,4.0,4.0,6.0,7.0,6.0,9.0,9.0,9.0,9.0,9.0,2.0,7.0,9.0,9.0,5.0,0.0,"herbicidal effect rating, CYPSE ([1]; Rate 0.1250 kg/ha): 4.0; herbicidal effect rating, SAGPY (Sagittaria pygmaea, L.; Rate 0.0620 kg/ha): 0.0; herbicidal effect rating, SAGPY (Sagittaria pygmaea, L.; Rate 0.1250 kg/ha): 0.0; herbicidal effect rating, SAGPY (Sagittaria pygmaea, L.; Rate 0.2500 kg/ha): 9.0; herbicidal effect rating, SAGPY (Sagittaria pygmaea, L.; Rate 0.5000 kg/ha): 0.0; herbicidal effect rating, ECHORC ([4]; Rate 0.0320 kg/ha): 3.0; herbicidal effect rating, ECHORC ([4]; Rate 0.0620 kg/ha): 4.1; herbicidal effect rating, ECHORC ([4]; Rate 0.1250 kg/ha): 5.7; herbicidal effect rating, ECHORC ([4]; Rate 0.2500 kg/ha): 9.0; herbicidal effect rating, ECHORC ([4]; Rate 0.5000 kg/ha): 7.0"
"CC(C)S(=O)(=O)NC(=O)COc1ccccc1-c1nsc2ccc(-n3c(=O)cc(C(F)(F)F)n(C)c3=O)cc12 [Example 555, Acetamide, 2-{o-{5-[3,6-dihydro-3-methyl-2,6-dioxo-4-(trifluoromethyl)-1(2H)-pyrimidinyl)-1,2-benzisothiazol-3-yl}phenoxy}-N-(isopropylsulfonyl)-]",4.0,6.0,8.0,9.0,6.0,6.0,8.0,9.0,3.0,9.0,9.0,9.0,9.0,9.0,4.0,6.0,9.0,9.0,3.0,0.0,"herbicidal effect rating, CYPSE ([1]; Rate 0.1250 kg/ha): 8.0; herbicidal effect rating, SAGPY (Sagittaria pygmaea, L.; Rate 0.0620 kg/ha): 0.0; herbicidal effect rating, SAGPY (Sagittaria pygmaea, L.; Rate 0.1250 kg/ha): 2.0; herbicidal effect rating, SAGPY (Sagittaria pygmaea, L.; Rate 0.2500 kg/ha): 7.0; herbicidal effect rating, SAGPY (Sagittaria pygmaea, L.; Rate 0.5000 kg/ha): 0.0; herbicidal effect rating, ECHORC ([4]; Rate 0.0320 kg/ha): 1.6; herbicidal effect rating, ECHORC ([4]; Rate 0.0620 kg/ha): 2.3; herbicidal effect rating, ECHORC ([4]; Rate 0.1250 kg/ha): 4.6; herbicidal effect rating, ECHORC ([4]; Rate 0.2500 kg/ha): 9.0; herbicidal effect rating, ECHORC ([4]; Rate 0.5000 kg/ha): 9.0"
"CCCS(=O)(=O)NC(=O)COc1ccccc1-c1nsc2ccc(-n3c(=O)cc(C(F)(F)F)n(C)c3=O)cc12 [Example 556, Acetamide, 2-{o-{5-[3,6-dihydro-3-methyl-2,6-dioxo-4-(trifluoromethyl)-1(2H)-pyrimidinyl]-1,2-benzisothiazol-3-yl}phenoxy}-N-(propylsulfonyl)-]",2.0,2.0,9.0,0.0,4.0,7.0,8.0,9.0,5.0,9.0,9.0,9.0,9.0,9.0,0.0,2.0,7.0,9.0,3.0,0.0,"herbicidal effect rating, CYPSE ([1]; Rate 0.1250 kg/ha): 9.0; herbicidal effect rating, SAGPY (Sagittaria pygmaea, L.; Rate 0.0620 kg/ha): 0.0; herbicidal effect rating, SAGPY (Sagittaria pygmaea, L.; Rate 0.1250 kg/ha): 6.0; herbicidal effect rating, SAGPY (Sagittaria pygmaea, L.; Rate 0.2500 kg/ha): 4.0; herbicidal effect rating, SAGPY (Sagittaria pygmaea, L.; Rate 0.5000 kg/ha): 3.0; herbicidal effect rating, ECHORC ([4]; Rate 0.0320 kg/ha): 2.9; herbicidal effect rating, ECHORC ([4]; Rate 0.0620 kg/ha): 3.6; herbicidal effect rating, ECHORC ([4]; Rate 0.1250 kg/ha): 4.4; herbicidal effect rating, ECHORC ([4]; Rate 0.2500 kg/ha): 9.0; herbicidal effect rating, ECHORC ([4]; Rate 0.5000 kg/ha): 9.0"
